Test results published in patent US20230085307A1, “PYRIDAZINONE COMPOUND AND HERBICIDE” (NISSAN CHEMICAL CORPORATION, priority 2019, published 2023).

The compounds below were run on Japanese bulrush (assay: Test Example 1: herbicidal activity, application before weed generation under submerged conditions (Table 16, symbol B)). Settings: amount of applied herbicide 320 g/ha.
Assay type: in vivo, Japanese bulrush (Schoenoplectus juncoides)
In short: (§1)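 Submerged Wagner pots (alluvial soil, 4 cm water) sown with weed seeds and planted with 2.5-leaf rice seedlings; emulsifiable concentrate diluted in water applied to water surface on sowing day. Held in greenhouse at 25-30 °C; injury scored 0-5 by herbicidal rate after three weeks.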

Row | Compound | Herbicidal effect, B: Japanese bulrush
1 | CCCC(=O)Oc1c(C)nn(C)c(=O)c1-c1c(-c2ccc(OC)cc2)sc2cc(OCC)ccc12 [3-092] | 3 (Herbicidal rate of 40% or more and less than 70%)
2 | CCCCOc1ccc2c(-c3c(O)c(C)nn(C)c3=O)c(-c3ccccc3OC)sc2c1 [3-105] | 5 (Herbicidal rate of 90% or more (almost completely withered))

Each compound was assayed on lambsquarters (assay: Test Example 5: herbicidal effect by foliage application, plastic box (Table 20, symbol O)). Settings: foliage application, 320 g/ha, three weeks after application.
Assay type: in vivo, lambsquarters (Chenopodium album)
In short: (§2)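 Plants sown in sterilized diluvial soil and grown 14 days in a greenhouse at 25° C to 30° C, then sprayed on the foliage with the compound's emulsion diluted in water to a predetermined herbicide amount. Injury to weeds and crops scored three weeks after application on a visual rating scale.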

Row | Compound | O: lambsquarters, herbicidal effect grade
3 | CCCC(=O)Oc1c(C)nn(C)c(=O)c1-c1c(-c2ccc(OC)cc2)sc2cc(OCC)ccc12 [3-092] | 4 (Herbicidal rate of 70% or more and less than 90%)
4 | CCCCOc1ccc2c(-c3c(O)c(C)nn(C)c3=O)c(-c3ccccc3OC)sc2c1 [3-105] | 5 (Herbicidal rate of 90% or more (almost completely withered))

What follows are compounds tested on barnyard grass (assay: Test Example 3: herbicidal effect by foliage application, Wagner pot (Table 18, symbol H)). Settings: 320 g/ha.
Assay type: in vivo, barnyard grass (Echinochloa crus-galli)
In short: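 Plants were sown in alluvial soil held under 0.1–0.5 cm standing water and grown 14 days in a greenhouse at 25–30 °C. An emulsifiable formulation, water-diluted to the set dose, was then sprayed onto the foliage, and effects were scored three weeks later using previously defined criteria.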

Row | Compound | herbicidal effect on barnyard grass (H)
5 | CCCC(=O)Oc1c(C)nn(C)c(=O)c1-c1c(-c2ccc(OC)cc2)sc2cc(OCC)ccc12 [3-092] | 0 (Herbicidal rate of 5% or less (almost no effect))
6 | CCCCOc1ccc2c(-c3c(O)c(C)nn(C)c3=O)c(-c3ccccc3OC)sc2c1 [3-105] | 5 (Herbicidal rate of 90% or more (almost completely withered))

These compounds were tested on southern crabgrass (assay: Test Example 4: herbicidal effect by soil treatment (Table 19, symbol F)). Settings: amount of applied herbicide 320 g/ha.
Assay type: in vivo, southern crabgrass (Digitaria ciliaris)
In short: (§3)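 Seeds were sown in sterilized diluvial soil and covered with about 1.5 cm of soil. An emulsion formulation diluted with water to a predetermined herbicide amount was sprayed evenly onto the soil surface. Plants grew in a greenhouse at 25° C. to 30° C., and the effect was scored three weeks after application using criteria from an earlier test.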

Row | Compound | F: southern crabgrass, herbicidal effect grade
7 | CCCC(=O)Oc1c(C)nn(C)c(=O)c1-c1c(-c2ccc(OC)cc2)sc2cc(OCC)ccc12 [3-092] | 3 (Herbicidal rate of 40% or more and less than 70%)
8 | CCCCOc1ccc2c(-c3c(O)c(C)nn(C)c3=O)c(-c3ccccc3OC)sc2c1 [3-105] | 0 (Herbicidal rate of 5% or less (almost no effect))

Each compound was assayed on green foxtail (assay: Test Example 5: herbicidal effect by foliage application, plastic box (Table 20, symbol G)). Settings: foliage application, 320 g/ha, three weeks after application.
Assay type: in vivo, green foxtail (Setaria viridis)
In short: as §2

Row | Compound | G: green foxtail, herbicidal effect grade
9 | CCCC(=O)Oc1c(C)nn(C)c(=O)c1-c1c(-c2ccc(OC)cc2)sc2cc(OCC)ccc12 [3-092] | 0 (Herbicidal rate of 5% or less (almost no effect))
10 | CCCCOc1ccc2c(-c3c(O)c(C)nn(C)c3=O)c(-c3ccccc3OC)sc2c1 [3-105] | 5 (Herbicidal rate of 90% or more (almost completely withered))

Each compound was assayed on oval-leafed pondweed (assay: Test Example 1: herbicidal activity, application before weed generation under submerged conditions (Table 16, symbol C)). Settings: amount of applied herbicide 320 g/ha.
Assay type: in vivo, oval-leafed pondweed (Monochoria vaginalis)
In short: as §1

Row | Compound | Herbicidal effect, C: oval-leafed pondweed
11 | CCCC(=O)Oc1c(C)nn(C)c(=O)c1-c1c(-c2ccc(OC)cc2)sc2cc(OCC)ccc12 [3-092] | 3 (Herbicidal rate of 40% or more and less than 70%)
12 | CCCCOc1ccc2c(-c3c(O)c(C)nn(C)c3=O)c(-c3ccccc3OC)sc2c1 [3-105] | 5 (Herbicidal rate of 90% or more (almost completely withered))

Each compound was assayed on barnyard grass (assay: Test Example 4: herbicidal effect by soil treatment (Table 19, symbol H)). Settings: amount of applied herbicide 320 g/ha.
Assay type: in vivo, barnyard grass (Echinochloa crus-galli)
In short: as §3

Row | Compound | H: barnyard grass, herbicidal effect grade
13 | CCCC(=O)Oc1c(C)nn(C)c(=O)c1-c1c(-c2ccc(OC)cc2)sc2cc(OCC)ccc12 [3-092] | 0 (Herbicidal rate of 5% or less (almost no effect))
14 | CCCCOc1ccc2c(-c3c(O)c(C)nn(C)c3=O)c(-c3ccccc3OC)sc2c1 [3-105] | 0 (Herbicidal rate of 5% or less (almost no effect))

The compounds below were run on blackgrass (assay: Test Example 4: herbicidal effect by soil treatment (Table 19, symbol J)). Settings: amount of applied herbicide 320 g/ha.
Assay type: in vivo, blackgrass (Alopecurus myosuroides)
In short: as §3

Row | Compound | J: blackgrass, herbicidal effect grade
15 | CCCC(=O)Oc1c(C)nn(C)c(=O)c1-c1c(-c2ccc(OC)cc2)sc2cc(OCC)ccc12 [3-092] | 0 (Herbicidal rate of 5% or less (almost no effect))
16 | CCCCOc1ccc2c(-c3c(O)c(C)nn(C)c3=O)c(-c3ccccc3OC)sc2c1 [3-105] | 0 (Herbicidal rate of 5% or less (almost no effect))

These compounds were tested on chickweed (assay: Test Example 4: herbicidal effect by soil treatment (Table 19, symbol P)). Settings: amount of applied herbicide 320 g/ha.
Assay type: in vivo, common chickweed (Stellaria media)
In short: as §3

Row | Compound | P: chickweed, herbicidal effect grade
17 | CCCC(=O)Oc1c(C)nn(C)c(=O)c1-c1c(-c2ccc(OC)cc2)sc2cc(OCC)ccc12 [3-092] | 5 (Herbicidal rate of 90% or more (almost completely withered))
18 | CCCCOc1ccc2c(-c3c(O)c(C)nn(C)c3=O)c(-c3ccccc3OC)sc2c1 [3-105] | 3 (Herbicidal rate of 40% or more and less than 70%)

These compounds were tested on Japanese bulrush (assay: Test Example 2: herbicidal activity, application during weed generation under submerged conditions (Table 17, symbol B)). Settings: AAH 320 g/ha; application during weed generation, submerged conditions.
Assay type: in vivo, Japanese bulrush (Schoenoplectus juncoides)
In short: (§4)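 Mixed weed seedlings in alluvial soil under a 4 cm water layer, greenhouse-grown at 25–30° C. Compound given as a diluted emulsion into the floodwater at the 1–2 leaf stage; response graded after three weeks.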

Row | Compound | herbicidal effect rating, B: Japanese bulrush
19 | CCCC(=O)Oc1c(C)nn(C)c(=O)c1-c1c(-c2ccc(OC)cc2)sc2cc(OCC)ccc12 [3-092] | 1 (Herbicidal rate of 5% or more and less than 20%)
20 | CCCCOc1ccc2c(-c3c(O)c(C)nn(C)c3=O)c(-c3ccccc3OC)sc2c1 [3-105] | 3 (Herbicidal rate of 40% or more and less than 70%)

Each compound was assayed on late watergrass (assay: Test Example 2: herbicidal activity, application during weed generation under submerged conditions (Table 17, symbol A)). Settings: AAH 320 g/ha; application during weed generation, submerged conditions.
Assay type: in vivo, late watergrass (Echinochloa oryzicola)
In short: as §4

Row | Compound | herbicidal effect rating, A: late watergrass
21 | CCCC(=O)Oc1c(C)nn(C)c(=O)c1-c1c(-c2ccc(OC)cc2)sc2cc(OCC)ccc12 [3-092] | 0 (Herbicidal rate of 5% or less (almost no effect))
22 | CCCCOc1ccc2c(-c3c(O)c(C)nn(C)c3=O)c(-c3ccccc3OC)sc2c1 [3-105] | 3 (Herbicidal rate of 40% or more and less than 70%)

What follows are compounds tested on persian speedwell (assay: Test Example 5: herbicidal effect by foliage application, plastic box (Table 20, symbol R)). Settings: foliage application, 320 g/ha, three weeks after application.
Assay type: in vivo, Persian speedwell (Veronica persica)
In short: as §2

Row | Compound | R: persian speedwell, herbicidal effect grade
23 | CCCC(=O)Oc1c(C)nn(C)c(=O)c1-c1c(-c2ccc(OC)cc2)sc2cc(OCC)ccc12 [3-092] | 5 (Herbicidal rate of 90% or more (almost completely withered))
24 | CCCCOc1ccc2c(-c3c(O)c(C)nn(C)c3=O)c(-c3ccccc3OC)sc2c1 [3-105] | 5 (Herbicidal rate of 90% or more (almost completely withered))

The compounds below were run on wild oat (assay: Test Example 5: herbicidal effect by foliage application, plastic box (Table 20, symbol I)). Settings: foliage application, 320 g/ha, three weeks after application.
Assay type: in vivo, wild oat (Avena fatua)
In short: as §2

Row | Compound | I: wild oat, herbicidal effect grade
25 | CCCC(=O)Oc1c(C)nn(C)c(=O)c1-c1c(-c2ccc(OC)cc2)sc2cc(OCC)ccc12 [3-092] | 0 (Herbicidal rate of 5% or less (almost no effect))
26 | CCCCOc1ccc2c(-c3c(O)c(C)nn(C)c3=O)c(-c3ccccc3OC)sc2c1 [3-105] | 4 (Herbicidal rate of 70% or more and less than 90%)

The compounds below were run on redroot pigweed (assay: Test Example 4: herbicidal effect by soil treatment (Table 19, symbol N)). Settings: amount of applied herbicide 320 g/ha.
Assay type: in vivo, redroot pigweed (Amaranthus retroflexus)
In short: as §3

Row | Compound | N: redroot pigweed, herbicidal effect grade
27 | CCCC(=O)Oc1c(C)nn(C)c(=O)c1-c1c(-c2ccc(OC)cc2)sc2cc(OCC)ccc12 [3-092] | 3 (Herbicidal rate of 40% or more and less than 70%)
28 | CCCCOc1ccc2c(-c3c(O)c(C)nn(C)c3=O)c(-c3ccccc3OC)sc2c1 [3-105] | 4 (Herbicidal rate of 70% or more and less than 90%)

What follows are compounds tested on southern crabgrass (assay: Test Example 5: herbicidal effect by foliage application, plastic box (Table 20, symbol F)). Settings: foliage application, 320 g/ha, three weeks after application.
Assay type: in vivo, southern crabgrass (Digitaria ciliaris)
In short: as §2

Row | Compound | F: southern crabgrass, herbicidal effect grade
29 | CCCC(=O)Oc1c(C)nn(C)c(=O)c1-c1c(-c2ccc(OC)cc2)sc2cc(OCC)ccc12 [3-092] | 0 (Herbicidal rate of 5% or less (almost no effect))
30 | CCCCOc1ccc2c(-c3c(O)c(C)nn(C)c3=O)c(-c3ccccc3OC)sc2c1 [3-105] | 5 (Herbicidal rate of 90% or more (almost completely withered))

The compounds below were run on redroot pigweed (assay: Test Example 5: herbicidal effect by foliage application, plastic box (Table 20, symbol N)). Settings: foliage application, 320 g/ha, three weeks after application.
Assay type: in vivo, redroot pigweed (Amaranthus retroflexus)
In short: as §2

Row | Compound | N: redroot pigweed, herbicidal effect grade
31 | CCCC(=O)Oc1c(C)nn(C)c(=O)c1-c1c(-c2ccc(OC)cc2)sc2cc(OCC)ccc12 [3-092] | 5 (Herbicidal rate of 90% or more (almost completely withered))
32 | CCCCOc1ccc2c(-c3c(O)c(C)nn(C)c3=O)c(-c3ccccc3OC)sc2c1 [3-105] | 5 (Herbicidal rate of 90% or more (almost completely withered))

The compounds below were run on blackgrass (assay: Test Example 5: herbicidal effect by foliage application, plastic box (Table 20, symbol J)). Settings: foliage application, 320 g/ha, three weeks after application.
Assay type: in vivo, blackgrass (Alopecurus myosuroides)
In short: as §2

Row | Compound | J: blackgrass, herbicidal effect grade
33 | CCCC(=O)Oc1c(C)nn(C)c(=O)c1-c1c(-c2ccc(OC)cc2)sc2cc(OCC)ccc12 [3-092] | 0 (Herbicidal rate of 5% or less (almost no effect))
34 | CCCCOc1ccc2c(-c3c(O)c(C)nn(C)c3=O)c(-c3ccccc3OC)sc2c1 [3-105] | 5 (Herbicidal rate of 90% or more (almost completely withered))
